“And” between values parts separate entries of the source, which are not always exact repeats. Identical values can stand only once.
Tests used:
[1] = molecular target: T1, mutEGFR (D770_N771insSVD) (Homo sapiens, UniProt P00533, DUP768-770); test: Exon20-Mutant-EGFR(D770_N771insSVD) kinase assay (TR-FRET); assay type: biochemical; details: GST-EGFR ins SVD, 2 mM ATP, 15 min pre-incubation
T1 construct: GST-EGFR #3 (SVD between D770 and N771); made in house; host or cells: Sf9 insect cells (baculovirus)
T1 sequence (P00533 with tags, fused parts or gaps DUP768-770): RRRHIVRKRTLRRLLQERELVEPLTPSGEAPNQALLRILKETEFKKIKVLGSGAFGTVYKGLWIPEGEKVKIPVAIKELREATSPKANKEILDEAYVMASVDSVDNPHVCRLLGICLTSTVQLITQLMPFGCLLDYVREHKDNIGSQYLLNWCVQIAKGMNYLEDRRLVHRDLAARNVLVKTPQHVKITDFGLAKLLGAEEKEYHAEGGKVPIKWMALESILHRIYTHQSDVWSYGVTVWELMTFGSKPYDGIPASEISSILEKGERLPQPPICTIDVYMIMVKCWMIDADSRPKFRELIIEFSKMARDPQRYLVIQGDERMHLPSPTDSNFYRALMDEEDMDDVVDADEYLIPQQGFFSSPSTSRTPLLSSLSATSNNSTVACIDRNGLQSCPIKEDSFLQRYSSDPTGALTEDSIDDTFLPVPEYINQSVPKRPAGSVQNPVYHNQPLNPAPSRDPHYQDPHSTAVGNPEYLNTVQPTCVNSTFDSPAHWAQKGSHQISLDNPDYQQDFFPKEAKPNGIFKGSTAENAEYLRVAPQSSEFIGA
From the text: Inhibitory activity of compounds of the present invention against an Epidermal Growth Factor Receptor (EGFR) with an insertion of the amino acids sequence SVD between D770 and N771 was quantified employing the TR-FRET based kinase activity assay as described in the following paragraphs.
A recombinant fusion protein of N-terminal Glutathion-S-Transferase (GST) and a fragment of human EGFR variant (amino acids R669 to A1210 with insertion of the amino acids sequence SVD between D770 and N771 (“EGFR ins SVD”), expressed in Sf9 insect cells and purified via affinity chromatography using Glutathion Sepharose as described above, was used as a kinase. As substrate for the kinase reaction the biotinylated peptide biotin-Ahx-AEEEEYFELVAKKK (SEQ ID NO: 6) (C-terminus in amide form) was used which can be purchased e.g. form the company Biosynthan GmbH (Berlin-Buch, Germany).
For the assay 50 nl of a 100-fold concentrated solution of the test compound in DMSO was pipetted into either a black low volume 384 well microtiter plate or a black 1536 well microtiter plate (both Greiner Bio-One, Frickenhausen, Germany), 2 μl of a solution of EGFR in aqueous assay buffer [50 mM Hepes pH 7.0, 10 mM MgCl2, 1 mM dithiothreitol, 0.5 mM EGTA, 0.3 mM activated sodium ortho-vanadate, 0.005% (w/v) bovine serum albumin, 0.005% (v/v) Tween-20] were added and the mixture was incubated for 15 min at 22° C. to allow pre binding of the test compounds to the enzyme before the start of the kinase reaction. Then the kinase reaction was started by the addition of 3 μL of a solution of adenosine tri phosphate (ATP, 3.33 mM=>final conc. in the 5 μL assay volume is 2 mM) and substrate (1.67 μM=>final conc. in the 5 μL assay volume is 1 μM) in assay buffer and the resulting mixture was incubated for a reaction time of 30 min at 22° C. The concentration of EGFR was adjusted depending of the activity of the enzyme lot and was chosen appropriate to have the assay in the linear range, typical concentration was 15 pg/μl. The reaction was stopped by the addition of 3 μl of a solution of HTRF detection reagents (83.3 nM streptavidine-XL665 [Cisbio Bioassays, Codolet, France] and 1.67 nM PT66-Tb-Cryptate, a terbium-cryptate labelled anti-phospho-tyrosine antibody from Cisbio Bioassays [instead of the PT66 Tb cryptate PT66 Eu Chelate from Perkin Elmer can also be used]) in an aqueous EDTA-solution (133.3 mM EDTA, 0.2% (w/v) bovine serum albumin in 50 mM HEPES pH 7.5).
The resulting mixture was incubated 1 h at 22° C. to allow the binding of the biotinylated phosphorylated peptide to the streptavidine-XL665 and the PT66-Tb-Cryptate. Subsequently the amount of phosphorylated substrate was evaluated by measurement of the resonance energy transfer from the PT66-Tb-Cryptate to the streptavidine-XL665. Therefore, the fluorescence emissions at 620 nm and 665 nm after excitation at 337 nm were measured in a HTRF reader, e.g. a Pherastar (BMG Labtechnologies, Offenburg, Germany) or a Viewlux (Perkin-Elmer). The ratio of the emissions at 665 nm and at […] was taken as the measure for the amount of phosphorylated substrate. The data were normalised (enzyme reaction without inhibitor=0% inhibition, all other assay components but no enzyme=100% inhibition).

Ba/F3-EGFR-insSVD cells = Ba/F3-EGFR-insSVD cells (Homo sapiens, UniProt P00533, DUP768-770, cells depend on it); test: Ba/F3 cell survival assay (Cell Titer-Glo), EGFR-insSVD; assay type: cell-based; details: 48 h, without IL-3, 10 ng/mL EGF; read-out: BA/F3 (insSVD) IC50
Chain of Ba/F3-EGFR-insSVD cells (P00533 with tags, fused parts or gaps DUP768-770): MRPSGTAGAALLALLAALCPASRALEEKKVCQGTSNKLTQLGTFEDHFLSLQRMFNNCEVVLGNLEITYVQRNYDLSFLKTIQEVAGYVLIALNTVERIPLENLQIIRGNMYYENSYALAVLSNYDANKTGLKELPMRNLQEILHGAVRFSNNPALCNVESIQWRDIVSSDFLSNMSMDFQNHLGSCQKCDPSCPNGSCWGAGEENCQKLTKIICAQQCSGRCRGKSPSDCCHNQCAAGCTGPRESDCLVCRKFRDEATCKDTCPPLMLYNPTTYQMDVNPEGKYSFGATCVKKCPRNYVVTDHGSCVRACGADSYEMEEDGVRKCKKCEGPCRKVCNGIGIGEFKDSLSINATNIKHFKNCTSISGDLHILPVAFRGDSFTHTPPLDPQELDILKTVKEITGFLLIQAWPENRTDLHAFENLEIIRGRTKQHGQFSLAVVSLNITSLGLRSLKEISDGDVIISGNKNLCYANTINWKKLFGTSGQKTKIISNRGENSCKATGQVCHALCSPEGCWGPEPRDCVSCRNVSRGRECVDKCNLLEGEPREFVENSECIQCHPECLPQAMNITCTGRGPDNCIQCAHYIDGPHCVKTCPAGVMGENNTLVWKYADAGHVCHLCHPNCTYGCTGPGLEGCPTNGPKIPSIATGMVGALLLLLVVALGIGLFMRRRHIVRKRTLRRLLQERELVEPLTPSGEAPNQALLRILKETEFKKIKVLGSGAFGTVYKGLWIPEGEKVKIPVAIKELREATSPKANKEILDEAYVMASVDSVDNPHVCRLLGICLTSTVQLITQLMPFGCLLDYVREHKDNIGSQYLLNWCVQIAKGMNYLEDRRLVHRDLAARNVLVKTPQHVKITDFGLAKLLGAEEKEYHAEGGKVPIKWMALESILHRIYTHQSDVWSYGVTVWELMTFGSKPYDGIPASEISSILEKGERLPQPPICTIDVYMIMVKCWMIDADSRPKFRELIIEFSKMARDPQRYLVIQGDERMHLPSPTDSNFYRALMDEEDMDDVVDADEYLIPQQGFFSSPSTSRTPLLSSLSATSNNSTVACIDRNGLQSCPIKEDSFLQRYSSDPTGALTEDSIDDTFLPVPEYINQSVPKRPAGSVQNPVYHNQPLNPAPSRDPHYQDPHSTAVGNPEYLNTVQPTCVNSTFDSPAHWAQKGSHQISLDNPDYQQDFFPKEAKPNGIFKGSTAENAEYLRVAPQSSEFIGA
Method: (§1) 293T cells from ATCC were transfected with pBABEpuro expression constructs for WT EGFR or EGFR-insSVD, or EGFR-insSVD T790M, and pCL-Eco packaging vector using Fugene-6 transfection reagent from Promega. Plates were incubated at 37° C. for 48 h. Retrovirus was harvested by filtering the media supernatant through a 0.45 μm filter.
(§2) Ba/F3 cells purchased from DSMZ were grown in RPMI+10% FBS+10 ng/mL IL-3 and infected with filtered retroviral supernatant at a 1:2 dilution. Polybrene was added to a concentration of 8 μg/mL, plates were spun for 90 min, and incubated for 16 h at 37° C. 2 μg/mL puromycin was added to the infected cells 24 h after infection and cells were continually grown in the presence of puromycin and 10 ng/mL IL-3. Following stably expressing Ba/F3 cell lines were generated: Ba/F3-EGFR-WT, Ba/F3-EGFR-insSVD, Ba/F3-EGFR-insSVD T790M, (Ba/F3—vector-control).
(§3) For cell survival assays, Ba/F3 cells were grown to a density of 1-2 million cells per mL, spun down and resuspended in media without IL-3, and replated at a concentration 200,000-500,000 cells per mL. The cells ectopically expressing WT EGFR, EGFR-insSVD, or EGFR-insSVD T790M were plated with 10 ng/mL Millipore Culture grade EGF. The cells ectopically expressing pBABEpuro empty vector were plated with 10 ng/mL IL-3.
(§4) 2 days later, cells were plated in 50 μL in a 384 well plate at a concentration of 4000 cells per well for cells assayed in the absence of IL-3 and 2000 cells per well for cells assayed in the presence of IL-3. 100 nL of compound was added to each well using a 100 nL pin head, and plates were incubated at 37° C. for 48 h.
(§5) Cell viability was measured by adding 20 μL of Cell Titer-Glo Luminescent Cell Viability Reagent diluted 1:3 in PBS. Plates were sealed with Perkin Elmer Top-Seal, inverted several times to mix, and immediately centrifuged at 1000 rpm for 2 min. Plates were incubated in low light conditions for 8-10 min and luminescence was measured.

[2] = molecular target: Ba/F3-EGFR-L858R T790M cells (Homo sapiens, UniProt P00533, T790M/L858R, cells depend on it); test: Ba/F3 cell survival assay (Cell Titer-Glo), EGFR-L858R T790M; assay type: cell-based; details: 48 h, without IL-3, 10 ng/mL EGF; read-out: BA/F3 (L858R T790M) IC50
Method: as §1, with “EGFR-L858R, EGFR-E746_A750del, EGFR-L858R T790M,” for “WT EGFR”, “EGFR-E746_A750del” for “EGFR-insSVD, or EGFR-insSVD”
as §2, with “Ba/F3-EGFR-L858R, Ba/F3-EGFR-E746_A750del, Ba/F3-EGFR-L858R” for “Ba/F3-EGFR-WT, Ba/F3-EGFR-insSVD, Ba/F3-EGFR-insSVD”, “or Ba/F3-EGFR-E746_A750del T790M.” for “(Ba/F3—vector-control).”
as §3, with “EGFR-L858R, EGFR-E746_A750del, EGFR-L858R T790M,” for “WT EGFR, EGFR-insSVD,”, “EGFR-E746_A750del” for “EGFR-insSVD”
as §4, §5

[3] = molecular target: Ba/F3-EGFR-E746_A750del T790M cells (Homo sapiens, UniProt P00533, DEL746-750/T790M, cells depend on it); test: Ba/F3 cell survival assay (Cell Titer-Glo), EGFR-E746_A750del T790M; assay type: cell-based; details: 48 h, without IL-3, 10 ng/mL EGF; read-out: BA/F3 (E746_A750del T790M) IC50
Chain of Ba/F3-EGFR-E746_A750del T790M cells (P00533 with tags, fused parts or gaps DEL746-750/T790M): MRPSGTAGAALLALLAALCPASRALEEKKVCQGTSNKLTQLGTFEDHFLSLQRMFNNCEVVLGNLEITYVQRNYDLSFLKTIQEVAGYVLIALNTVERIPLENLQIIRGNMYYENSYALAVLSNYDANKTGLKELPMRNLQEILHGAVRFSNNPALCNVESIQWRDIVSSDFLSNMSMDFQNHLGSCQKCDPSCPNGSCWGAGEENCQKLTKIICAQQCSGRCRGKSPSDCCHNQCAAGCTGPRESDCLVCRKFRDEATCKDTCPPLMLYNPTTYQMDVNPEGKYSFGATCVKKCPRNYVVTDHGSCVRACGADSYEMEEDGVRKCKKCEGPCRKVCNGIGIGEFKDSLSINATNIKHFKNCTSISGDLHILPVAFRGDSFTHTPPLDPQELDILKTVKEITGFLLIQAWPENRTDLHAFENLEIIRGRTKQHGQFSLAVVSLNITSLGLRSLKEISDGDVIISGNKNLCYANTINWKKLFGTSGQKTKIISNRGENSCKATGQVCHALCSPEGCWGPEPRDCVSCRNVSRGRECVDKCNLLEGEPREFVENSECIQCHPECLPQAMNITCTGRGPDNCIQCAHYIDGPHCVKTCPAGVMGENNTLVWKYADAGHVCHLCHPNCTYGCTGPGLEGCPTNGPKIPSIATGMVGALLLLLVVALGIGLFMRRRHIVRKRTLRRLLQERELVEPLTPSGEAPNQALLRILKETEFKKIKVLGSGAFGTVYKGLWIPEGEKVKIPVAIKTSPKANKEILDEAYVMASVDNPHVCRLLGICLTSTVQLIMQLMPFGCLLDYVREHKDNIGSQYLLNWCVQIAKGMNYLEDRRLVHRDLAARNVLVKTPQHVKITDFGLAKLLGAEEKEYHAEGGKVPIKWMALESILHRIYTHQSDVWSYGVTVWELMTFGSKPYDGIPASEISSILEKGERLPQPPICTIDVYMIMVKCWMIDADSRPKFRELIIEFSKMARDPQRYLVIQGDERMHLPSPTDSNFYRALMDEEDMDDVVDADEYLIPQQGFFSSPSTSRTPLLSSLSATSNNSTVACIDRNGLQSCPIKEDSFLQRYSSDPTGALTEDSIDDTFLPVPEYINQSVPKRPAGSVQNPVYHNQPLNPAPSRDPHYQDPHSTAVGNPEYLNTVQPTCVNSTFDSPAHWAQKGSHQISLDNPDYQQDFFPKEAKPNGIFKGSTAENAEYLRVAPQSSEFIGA
Method: as §1, with “EGFR-L858R, EGFR-E746_A750del, EGFR-L858R T790M,” for “WT EGFR”, “EGFR-E746_A750del” for “EGFR-insSVD, or EGFR-insSVD”
as §2, with “Ba/F3-EGFR-L858R, Ba/F3-EGFR-E746_A750del, Ba/F3-EGFR-L858R” for “Ba/F3-EGFR-WT, Ba/F3-EGFR-insSVD, Ba/F3-EGFR-insSVD”, “or Ba/F3-EGFR-E746_A750del T790M.” for “(Ba/F3—vector-control).”
as §3, with “EGFR-L858R, EGFR-E746_A750del, EGFR-L858R T790M,” for “WT EGFR, EGFR-insSVD,”, “EGFR-E746_A750del” for “EGFR-insSVD”
as §4, §5

Ba/F3-EGFR-WT cells = Ba/F3-EGFR-WT cells (Homo sapiens, UniProt P00533); test: Ba/F3 cell survival assay (Cell Titer-Glo), WT EGFR; assay type: cell-based; details: 48 h, without IL-3, 10 ng/mL EGF; read-out: BA/F3 (wild type) IC50
Chain of Ba/F3-EGFR-WT cells (P00533 whole entry, change not shown): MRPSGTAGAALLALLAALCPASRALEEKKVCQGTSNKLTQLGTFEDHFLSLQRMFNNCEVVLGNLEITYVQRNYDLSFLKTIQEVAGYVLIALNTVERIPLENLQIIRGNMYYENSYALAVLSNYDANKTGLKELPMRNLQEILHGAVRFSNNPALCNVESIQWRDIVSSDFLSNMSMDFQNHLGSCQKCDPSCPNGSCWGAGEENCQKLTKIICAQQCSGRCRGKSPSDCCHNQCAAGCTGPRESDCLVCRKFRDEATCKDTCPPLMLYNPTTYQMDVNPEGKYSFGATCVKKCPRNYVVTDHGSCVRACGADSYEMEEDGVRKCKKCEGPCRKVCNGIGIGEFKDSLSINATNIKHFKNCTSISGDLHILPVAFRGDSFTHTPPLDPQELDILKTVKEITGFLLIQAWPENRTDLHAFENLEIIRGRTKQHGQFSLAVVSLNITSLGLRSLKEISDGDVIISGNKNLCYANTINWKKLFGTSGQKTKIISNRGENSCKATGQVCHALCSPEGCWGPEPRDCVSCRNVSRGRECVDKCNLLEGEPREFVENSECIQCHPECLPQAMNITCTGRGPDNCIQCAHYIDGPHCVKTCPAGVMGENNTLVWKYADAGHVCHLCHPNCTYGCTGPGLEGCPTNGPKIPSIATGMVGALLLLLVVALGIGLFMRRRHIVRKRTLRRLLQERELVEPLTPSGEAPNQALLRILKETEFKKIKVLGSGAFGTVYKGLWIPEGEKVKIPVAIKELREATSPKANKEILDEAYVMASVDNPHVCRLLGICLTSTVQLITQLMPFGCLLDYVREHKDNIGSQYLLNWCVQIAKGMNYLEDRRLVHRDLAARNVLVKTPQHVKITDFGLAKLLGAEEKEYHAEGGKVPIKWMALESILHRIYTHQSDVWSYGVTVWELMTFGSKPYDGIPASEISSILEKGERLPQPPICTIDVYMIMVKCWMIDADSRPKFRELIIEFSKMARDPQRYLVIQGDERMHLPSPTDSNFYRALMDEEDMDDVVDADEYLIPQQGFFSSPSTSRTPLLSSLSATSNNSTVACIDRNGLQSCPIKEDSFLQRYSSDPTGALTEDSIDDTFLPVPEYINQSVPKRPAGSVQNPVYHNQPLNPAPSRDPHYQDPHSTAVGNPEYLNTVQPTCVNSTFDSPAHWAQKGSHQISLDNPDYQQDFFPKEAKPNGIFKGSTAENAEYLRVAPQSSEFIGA
Method: as §1, §2, §3, §4, §5

Compound	IC50 [1]	GI50 (Ba/F3-EGFR-insSVD cells)	GI50 [2]	GI50 [3]	GI50 (Ba/F3-EGFR-WT cells)
C=CC(=O)NCCOc1cnccc1-c1[nH]c2c(c1Nc1cccc(Cl)c1OC)C(=O)NCC2 [Example 1, N-[2-({4-[3-(3-chloro-2-methoxyanilino)-4-oxo-4,5,6,7-tetrahydro-1H-pyrrolo[3,2-c]pyridin-2-yl]pyridin-3-yl}oxy)ethyl]prop-2-enamide]	0.155 nM	376 nM	> 1000 nM	> 1000 nM	3030 nM
C=CC(=O)NCCOc1cnccc1-c1[nH]c2c(c1Nc1cccc(F)c1C)C(=O)NCC2 [Example 2, N-[2-({4-[3-(3-fluoro-2-methylanilino)-4-oxo-4,5,6,7-tetrahydro-1H-pyrrolo[3,2-c]pyridin-2-yl]pyridin-3-yl}oxy)ethyl]prop-2-enamide]	0.386 nM	57.9 nM	215 nM	25.2 nM	907 nM
C=CC(=O)NCCOc1cnccc1-c1[nH]c2c(c1Nc1cccc(Cl)c1C)C(=O)NCC2 [Example 3, N-[2-({4-[3-(3-chloro-2-methylanilino)-4-oxo-4,5,6,7-tetrahydro-1H-pyrrolo[3,2-c]pyridin-2-yl]pyridin-3-yl}oxy)ethyl]prop-2-enamide]	0.265 nM	40.2 nM	201 nM	32.6 nM	566 nM
C=CC(=O)NCCCOc1cnccc1-c1[nH]c2c(c1Nc1cccc(Cl)c1OC)C(=O)NCC2 [Example 4, N-[3-({4-[3-(3-chloro-2-methoxyanilino)-4-oxo-4,5,6,7-tetrahydro-1H-pyrrolo[3,2-c]pyridin-2-yl]pyridin-3-yl}oxy)propyl]prop-2-enamide]	0.305 nM	519 nM	> 1000 nM	> 1000 nM	4420 nM
C=CC(=O)N(C)CCOc1cnccc1-c1[nH]c2c(c1Nc1cccc(Cl)c1OC)C(=O)NCC2 [Example 5, N-[2-({4-[3-(3-chloro-2-methoxyanilino)-4-oxo-4,5,6,7-tetrahydro-1H-pyrrolo[3,2-c]pyridin-2-yl]pyridin-3-yl}oxy)ethyl]-N-methylprop-2-enamide]	0.231 nM	5.77 nM	12.9 nM	3.39 nM	68 nM
C=CC(=O)N(C)CCOc1cnccc1-c1[nH]c2c(c1Nc1cccc(F)c1OC)C(=O)NCC2 [Example 6, N-[2-({4-[3-(3-fluoro-2-methoxyanilino)-4-oxo-4,5,6,7-tetrahydro-1H-pyrrolo[3,2-c]pyridin-2-yl]pyridin-3-yl}oxy)ethyl]-N-methylprop-2-enamide]	0.171 nM	8.94 nM	26.4 nM	4.96 nM	109 nM
C=CC(=O)N(C)CCOc1cnccc1-c1[nH]c2c(c1Nc1ccc(F)cc1)C(=O)NCC2 [Example 7, N-[2-({4-[3-(4-fluoroanilino)-4-oxo-4,5,6,7-tetrahydro-1H-pyrrolo[3,2-c]pyridin-2-yl]pyridin-3-yl}oxy)ethyl]-N-methylprop-2-enamide]	1.62 nM	146 nM	274 nM	21.9 nM	366 nM
COc1c(F)cccc1Nc1c(-c2ccncc2OCCN(C)C(=O)/C=C/CN(C)C)[nH]c2c1C(=O)NCC2 [Example 8, (2E)-4-(dimethylamino)-N-[2-({4-[3-(3-fluoro-2-methoxyanilino)-4-oxo-4,5,6,7-tetrahydro-1H-pyrrolo[3,2-c]pyridin-2-yl]pyridin-3-yl}oxy)ethyl]-N-methylbut-2-enamide]	0.554 nM	240 nM	> 1000 nM	370 nM	4700 nM
COc1c(Cl)cccc1Nc1c(-c2ccncc2OCCN(C)C(=O)/C=C/CN(C)C)[nH]c2c1C(=O)NCC2 [Example 9, (2E)-N-[2-({4-[3-(3-chloro-2-methoxyanilino)-4-oxo-4,5,6,7-tetrahydro-1H-pyrrolo[3,2-c]pyridin-2-yl]pyridin-3-yl}oxy)ethyl]-4-(dimethylamino)-N-methylbut-2-enamide]	2.48 nM	263 nM	731 nM and > 1000 nM	183 nM	4520 nM
C=CC(=O)N1CCC[C@H]1COc1cnccc1-c1[nH]c2c(c1Nc1cccc(Cl)c1OC)C(=O)NCC2 [Example 13, 3-(3-chloro-2-methoxyanilino)-2-(3-{[(2S)-1-(prop-2-enoyl)pyrrolidin-2-yl]methoxy}pyridin-4-yl)-1,5,6,7-tetrahydro-4H-pyrrolo[3,2-c]pyridin-4-one]	0.206 nM	6.69 nM	–	–	51.2 nM

— patent US20230416249A1, “N-[2-({4-[3-(ANILINO)-4-OXO-4,5,6,7-TETRAHYDRO-1H-PYRROLO[3,2-C]PYRIDIN-2-YL]PYRIDIN-3-YL)OXY)ETHYL]PROP-2-ENAMIDE DERIVATIVES AND SIMILAR COMPOUNDS AS EGFR INHIBITORS FOR THE TREATMENT OF CANCER” (Bayer Aktiengesellschaft, priority 2020, published 2023)
